According to ChEMBL document CHEMBL5252588, “Palladium-Catalyzed Synthesis, Acetylcholinesterase Inhibition, and Neuroprotective Activities of N-Aryl Galantamine Analogues” (J Nat Prod, 2023):
The source made the active and inactive calls. The calls are words filed in the database; no cut-off is given here.

Columns and labels:
[1] = target: Acetylcholinesterase (Electrophorus electricus) (UniProt O42275); assay: Inhibition of electric eel AChE using acetylthiocholine iodide as substrate at 50 to 100 uM preincubated with compounds for 20 mins followed by substrate addition and measured after 20 mins by Ellman's method relative to control; details: dose 50-100 µM, time 40.0 min
[2] = target: Cholinesterase (Equus caballus) (UniProt P81908); assay: Inhibition of equine serum BChE using butyrylthiocholine iodide as substrate at 50 to 100 uM preincubated for 20 mins followed by substrate addition and measured after 20 mins by Ellman's method; details: dose 50-100 µM, time 40.0 min
[3] = system: SH-SY5Y; assay: Neuroprotective activity against H2O2-induced injury in human SH-SY5Y cells assessed as […] in cell viability at 50 uM preincubated with compound for 24 hrs followed by H2O2-addition and measured after 4 hrs by MTT assay relative to control; assay type: functional; details: time 28 hrs
[4] = system: SH-SY5Y; assay: Cytotoxicity against human SH-SY5Y cells assessed as reduction in cell viability; assay type: toxicity, cell-based
[5] = target: Acetylcholinesterase (Electrophorus electricus) (UniProt O42275); assay: Inhibition of electric eel AChE using acetylthiocholine iodide as substrate at 50 uM preincubated with compounds for 20 mins followed by substrate addition and measured after 20 mins by Ellman's method relative to control; details: time 40.0 min
[6] = target: Acetylcholinesterase (Electrophorus electricus, UniProt O42275); assay: Inhibition of electric eel AChE using acetylthiocholine iodide as substrate preincubated with compounds for 20 mins followed by substrate addition and measured after 20 mins by Ellman's method relative to control
[7] = system: SH-SY5Y; assay: Neuroprotective activity against H2O2-induced injury in human SH-SY5Y cells assessed as inhibition of H2O2-induced apoptosis at 50 uM preincubated with compound for 24 hrs followed by H2O2-addition and measured after 4 hrs by TUNEL staining based analysis; assay type: functional, cell-based; details: time 28.0 hrs
[8] = system: SH-SY5Y; assay: Neuroprotective activity against H2O2-induced injury in human SH-SY5Y cells assessed as increase in Bcl-2 protein expression at 50 uM preincubated with compound for 24 hrs followed by H2O2-addition and measured after 4 hrs by immunoblot analysis; assay type: functional, cell-based; details: time 28.0 hrs
[9] = system: SH-SY5Y; assay: Neuroprotective activity against H2O2-induced injury in human SH-SY5Y cells assessed as decrease in caspase-3 protein expression at 50 uM preincubated with compound for 24 hrs followed by H2O2-addition and measured after 4 hrs by immunoblot analysis; assay type: functional, cell-based; details: time 28.0 hrs
[10] = system: SH-SY5Y; assay: Neuroprotective activity against H2O2-induced injury in human SH-SY5Y cells assessed as decrease in cleaved caspase-3 at 50 uM preincubated with compound for 24 hrs followed by H2O2-addition and measured after 4 hrs by immunoblot analysis; assay type: functional, cell-based; details: time 28.0 hrs

Chain of Cholinesterase (Equus caballus) (P81908 whole entry): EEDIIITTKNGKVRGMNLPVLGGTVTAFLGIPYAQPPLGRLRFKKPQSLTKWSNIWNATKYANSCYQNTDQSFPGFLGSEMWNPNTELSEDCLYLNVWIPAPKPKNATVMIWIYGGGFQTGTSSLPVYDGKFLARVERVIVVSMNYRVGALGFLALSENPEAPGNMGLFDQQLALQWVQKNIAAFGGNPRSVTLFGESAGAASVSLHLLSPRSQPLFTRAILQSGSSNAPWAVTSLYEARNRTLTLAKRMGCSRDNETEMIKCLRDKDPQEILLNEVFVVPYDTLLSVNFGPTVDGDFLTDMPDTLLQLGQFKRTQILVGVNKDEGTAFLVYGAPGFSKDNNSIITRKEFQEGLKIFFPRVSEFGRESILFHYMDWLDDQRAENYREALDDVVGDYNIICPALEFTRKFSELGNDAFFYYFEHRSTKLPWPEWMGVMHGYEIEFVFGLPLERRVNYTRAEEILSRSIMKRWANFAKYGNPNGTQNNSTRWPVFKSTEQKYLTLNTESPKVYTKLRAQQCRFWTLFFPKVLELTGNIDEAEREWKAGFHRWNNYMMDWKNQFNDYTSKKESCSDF
Chain of Acetylcholinesterase (Electrophorus electricus) (O42275 24-633 limits assumed): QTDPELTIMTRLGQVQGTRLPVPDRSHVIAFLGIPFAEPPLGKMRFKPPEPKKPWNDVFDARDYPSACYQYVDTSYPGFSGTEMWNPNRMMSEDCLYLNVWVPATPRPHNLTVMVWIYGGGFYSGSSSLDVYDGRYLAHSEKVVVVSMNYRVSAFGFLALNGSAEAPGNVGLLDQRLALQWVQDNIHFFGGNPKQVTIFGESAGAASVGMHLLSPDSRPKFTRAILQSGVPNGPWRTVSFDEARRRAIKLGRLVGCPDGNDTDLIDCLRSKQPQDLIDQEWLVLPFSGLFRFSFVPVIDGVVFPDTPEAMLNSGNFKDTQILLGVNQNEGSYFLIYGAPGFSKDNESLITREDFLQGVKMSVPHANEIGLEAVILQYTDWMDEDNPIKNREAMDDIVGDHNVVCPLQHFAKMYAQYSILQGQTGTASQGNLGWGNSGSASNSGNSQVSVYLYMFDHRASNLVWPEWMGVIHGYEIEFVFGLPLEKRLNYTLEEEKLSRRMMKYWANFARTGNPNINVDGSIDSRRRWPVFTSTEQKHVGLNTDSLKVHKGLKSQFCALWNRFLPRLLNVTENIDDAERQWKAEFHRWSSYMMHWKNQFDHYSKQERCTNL
Chain of Acetylcholinesterase (O42275 whole entry): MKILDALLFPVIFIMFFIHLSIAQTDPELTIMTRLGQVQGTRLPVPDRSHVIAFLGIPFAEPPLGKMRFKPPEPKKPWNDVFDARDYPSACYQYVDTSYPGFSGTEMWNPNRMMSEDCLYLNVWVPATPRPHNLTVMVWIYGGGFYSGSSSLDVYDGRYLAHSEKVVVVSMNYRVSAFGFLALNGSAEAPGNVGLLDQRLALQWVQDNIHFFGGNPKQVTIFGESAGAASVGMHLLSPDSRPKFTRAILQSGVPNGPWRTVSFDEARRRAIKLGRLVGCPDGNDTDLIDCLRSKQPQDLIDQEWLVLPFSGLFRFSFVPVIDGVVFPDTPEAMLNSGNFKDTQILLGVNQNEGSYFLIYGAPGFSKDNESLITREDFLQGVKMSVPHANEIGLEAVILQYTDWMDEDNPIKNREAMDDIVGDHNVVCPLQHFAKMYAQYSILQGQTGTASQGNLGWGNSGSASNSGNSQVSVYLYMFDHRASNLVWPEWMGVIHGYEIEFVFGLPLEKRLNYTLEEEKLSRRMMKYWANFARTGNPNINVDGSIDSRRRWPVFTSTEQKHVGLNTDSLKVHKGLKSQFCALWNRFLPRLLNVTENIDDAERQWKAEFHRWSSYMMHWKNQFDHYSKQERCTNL

SMILES	inhibition [1] [%]	inhibition [2]	Activity [3] [%]	further results
COc1ccc2c3c1O[C@H]1C[C@@H](O)C=C[C@@]31CCN(c1ccc(F)cc1)C2	< 50	inactive	39	
CCc1ccc(-c2ccc(N3CC[C@@]45C=C[C@H](O)C[C@@H]4Oc4c(OC)ccc(c45)C3)cc2)cc1	< 50	inactive		Activity [4]: Toxic
CCOc1ccc(N2CC[C@@]34C=C[C@H](O)C[C@@H]3Oc3c(OC)ccc(c34)C2)nc1		inactive	41	
COc1ccc2c3c1O[C@H]1C[C@@H](O)C=C[C@@]31CCN(c1ccc3c(c1)OCO3)C2	< 50	inactive	39	
COc1ccc2c3c1O[C@H]1C[C@@H](O)C=C[C@@]31CCN(c1ccc3ncccc3c1)C2	< 50	inactive	56	
COc1ccc2c3c1O[C@H]1C[C@@H](O)C=C[C@@]31CCN(c1cc(C(F)(F)F)cc(C(F)(F)F)c1)C2	< 50	inactive		Activity [4]: Toxic
COc1ccc2c3c1O[C@H]1C[C@@H](O)C=C[C@@]31CCN(c1ccccn1)C2		inactive	59	inhibition [5]: > 50%; IC50 [6]: 3.6 µM
COc1ccc2c3c1O[C@H]1C[C@@H](O)C=C[C@@]31CCN(c1ncccc1C)C2		inactive	37	inhibition [5]: > 50%; IC50 [6]: 1.7 µM
COc1ccc2c3c1O[C@H]1C[C@@H](O)C=C[C@@]31CCN(c1cccc(C(F)(F)F)c1)C2	< 50	inactive	53	
COc1cccc(N2CC[C@@]34C=C[C@H](O)C[C@@H]3Oc3c(OC)ccc(c34)C2)n1		inactive	66	
COc1ccnc(N2CC[C@@]34C=C[C@H](O)C[C@@H]3Oc3c(OC)ccc(c34)C2)c1		inactive	70	inhibition [5]: > 50%; IC50 [6]: 0.19 µM; Activity [7]: Active; Activity [8]: Active; Activity [9]: inactive; Activity [10]: Active
COc1cccc(N2CC[C@@]34C=C[C@H](O)C[C@@H]3Oc3c(OC)ccc(c34)C2)c1	< 50	inactive	40	
COc1cccnc1N1CC[C@@]23C=C[C@H](O)C[C@@H]2Oc2c(OC)ccc(c23)C1		inactive	40	inhibition [5]: > 50%; IC50 [6]: 27 µM
COc1ccc2c3c1O[C@H]1C[C@@H](O)C=C[C@@]31CCN(c1ncccc1F)C2		inactive		Activity [4]: Toxic
COc1ccc2c3c1O[C@H]1C[C@@H](O)C=C[C@@]31CCN(c1ccc(C(F)(F)F)nc1)C2		inactive	63	
COc1ccc2c3c1O[C@H]1C[C@@H](O)C=C[C@@]31CCN(c1cc(C)ccn1)C2		inactive	41	
COc1ccc2c3c1O[C@H]1C[C@@H](O)C=C[C@@]31CCN(c1cccc(C)n1)C2		inactive	55	inhibition [5]: > 50%; IC50 [6]: 17 µM
COc1ccc2c3c1O[C@H]1C[C@@H](O)C=C[C@@]31CCN(C)C2 [GALANTAMINE]			44	
COc1ccc2c3c1O[C@H]1C[C@@H](O)C=C[C@@]31CCN(c1ccc(OC(C)C)nc1)C2		inactive	42	
COc1ccc2c3c1O[C@H]1C[C@@H](O)C=C[C@@]31CCN(c1ccc(C(C)(C)C)cc1)C2	< 50	inactive		Activity [4]: Toxic
COc1ccc2c3c1O[C@H]1C[C@@H](O)C=C[C@@]31CCN(c1ncccn1)C2		inactive	60	
CCCCc1ccc(N2CC[C@@]34C=C[C@H](O)C[C@@H]3Oc3c(OC)ccc(c34)C2)cc1	< 50	inactive		Activity [4]: Toxic
COc1ccc2c3c1O[C@H]1C[C@@H](O)C=C[C@@]31CCN(c1ccc(-c3ccccn3)cc1)C2	< 50	inactive	38	Activity [4]: Toxic
COc1ccc2c3c1O[C@H]1C[C@@H](O)C=C[C@@]31CCN(c1ccc(C)cc1)C2	< 50	inactive		Activity [4]: Toxic
COc1ccc(N2CC[C@@]34C=C[C@H](O)C[C@@H]3Oc3c(OC)ccc(c34)C2)cc1	< 50	inactive	37	
